Here are results for three molecules from patent US9585885B2, “Substituted pyrido[2,3-g]quinazolines as dopamine D2 receptor agonists” (KISSEI PHARMACEUTICAL CO., LTD., priority 2012, dated 2017).

Assay [1] addresses T1, human dopamine D2 receptor (Homo sapiens, UniProt P14416).
T1 construct: expressed in transfected cells
Briefly: Stimulating activities of human dopamine D2 receptor, [35S]GTPγS binding to hD2R#7 (HEK293) membrane homogenates. Particulars: [35S]GTPγS binding, membrane homogenates, mean value (n=2); read-out: EC50. It counts as biochemical. How it is done: Identification Test of Stimulating Activities on Human Dopamine D2 Receptor
The cells, which were grown to confluence in 150 mm dishes (IWAKI), were harvested with isotonic buffer (50 mM Tris (Sigma), 2 mM ethylenediamine-tetraacetic acid (Invitrogen), and 125 mM sodium chloride (Wako Pure Chemicals), pH 7.4) and centrifuged at 1880×g and 4° C. for 10 minutes, and the cell pellets were then suspended in isotonic buffer. After being subjected to one cycle of freezing and thawing, the cells were centrifuged at 1880×g and 4° C. for 10 minutes, and the cell pellets were suspended in isotonic buffer. The cells were centrifuged at 1880×g and 4° C. for 10 minutes, and the cell pellets were suspended in isotonic buffer and homogenate buffer (10 mM sodium bicarbonate (Nacalai) and 5 mM ethylenediamine-tetraacetic acid, pH 7.5). The volume ratio of isotonic-to-homogenate buffer was 2. The cells were sonicated and centrifuged at 1880×g and 4° C. for 10 minutes, and the supernatants were ultracentrifuged at 80000×g and 4° C. for 30 minutes. The final cell pellets were suspended in homogenate buffer containing protease inhibitor cocktail (Nacalai) and stored at −80° C. until use. The protein concentration was determined using BCA Protein Assay Kit (Pierce) in accordance with the manufacturer's instructions.
The stimulating activities of human dopamine D2 receptor was determined by measuring the binding potential of [^35S]-guanosine 5′-[gamma-thio]triphosphate ([^35S]GTPγS, PerkinElmer) according to the method described by Newman-Tancredi A. et al. (Naunyn-Schmiedeberg's Arch Pharmacol, 1999, vol. 359, pp. 447-453) with a minor modification. Test compounds and dopamine hydrochloride (Fluka) as positive control were dissolved in dimethyl sulfoxide (CARLBIOCHEM), resulting in 30 mM. The both compounds were diluted with assay buffer (50 mM Tris, 100 mM sodium chloride, 5 mM magnesium chloride (Nacalai), 1 mM ethylenediamine-tetraacetic acid, 1 mM dithiothreitol (Wako Pure Chemicals), 10 μM guanosine diphosphate (Wako Pure Chemicals) and 0.5% bovine serum albumin (Sigma), pH 7.4) to a final concentration of 100 pM (only test compounds), 1 nM, 10 nM, 100 nM, 1 μM, 10 μM and 100 μM (only dopamine hydrochloride). The above membrane homogenates and [^35S]GTPγS were diluted with assay buffer to a final concentration of 0.06 mg/mL and 0.6 nM, respectively. The serial diluted compounds (50 μL), the diluted membrane homogenates (50 μL) and the diluted [^35S]GTPγS (50 μL) were mixed on multi-screen 96-well plate (Millipore) and shaken lightly at room temperature for 60 minutes. The reaction was terminated by vacuum filtration with three times washes of ice-cold wash buffer (50 mM Tris, 100 mM sodium chloride, 5 mM magnesium chloride, and 1 mM ethylenediamine-tetraacetic acid, pH 7.4). After drying the bottoms of the plate at 60° C., MicroScinti-40 (PerkinElmer) (30 μL) was added in the plate. The tops of the plate were sealed by TopSeal-A (PerkinElmer), and the radioactivity was determined in a TopCount NXT (registered mark)(PerkinElmer) after shaking lightly for 5-10 minutes. The data was analyzed by nonlinear regression and sigmoidal dose-response curve fitting using GraphPad PRISM 4.0 (GraphPad Software), and values of EC50 (concentration of the compound producing half the maximal effect of the compound) were calculated. The data was presented as mean value (n=2).
For orientation: GTPγS is a poorly hydrolysed GTP analogue; its binding reports G protein activation.

The target of assay [2] is T2, human serotonin 5-HT2B receptor (Homo sapiens, UniProt P41595).
T2 construct: expressed in transfected cells; host or cells: HEK293 (transient transfection)
T2 sequence (P41595 whole entry): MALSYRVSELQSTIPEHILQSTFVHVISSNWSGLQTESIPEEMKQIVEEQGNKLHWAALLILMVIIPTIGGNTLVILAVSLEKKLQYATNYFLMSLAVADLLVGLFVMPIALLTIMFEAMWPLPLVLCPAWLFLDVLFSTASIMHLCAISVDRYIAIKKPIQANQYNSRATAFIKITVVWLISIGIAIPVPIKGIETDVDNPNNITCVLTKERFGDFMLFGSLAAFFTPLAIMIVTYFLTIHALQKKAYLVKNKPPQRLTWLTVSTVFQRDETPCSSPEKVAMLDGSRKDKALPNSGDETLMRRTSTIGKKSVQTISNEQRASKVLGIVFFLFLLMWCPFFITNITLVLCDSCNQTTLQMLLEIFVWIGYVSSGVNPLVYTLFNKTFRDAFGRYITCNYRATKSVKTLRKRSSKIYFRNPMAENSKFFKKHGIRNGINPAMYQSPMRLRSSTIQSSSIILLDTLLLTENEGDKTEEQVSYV
The experiment in a line: Stimulating activities of human serotonin 5-HT2B receptor, intracellular calcium in forced expression HEK293 cells. It is filed as cell-based. Particulars: intracellular calcium concentration, mean value (n=2). The method, then:
Identification Test of Stimulating Activities on Human Serotonin 5-HT2B Receptor
Mostly confluent HEK293 cells were washed with PBS, followed by exfoliation with 0.05% trypsin-EDTA and the cells were suspended in D-MEM liquid medium (phenol red-free, low glucose, pyruvic acid were contained) containing fetal bovine serum (final concentration: 10%) and GlutaMax (registered mark) I (final concentration: 2 mM). The suspension was scattered at 5×10^4 cells/100 μL/well on poly-D-lysine-coated 96-well microplate (BD BioCoat (registered mark)). The scattered cells were cultured in 5% CO2 incubator at 37° C. Human serotonin 5-HT2B receptor expression plasmid was transfected in that cells according to the procedure seeing below.
Human serotonin 5-HT2B receptor expression plasmid and Lipofectamine (registered mark) 2000 (Invitrogen) were diluted to 0.008 g/L and 0.016 g/L each other with OPTI-MEM (registered mark) I Reduced-Serum Medium and incubated at room temperature. After incubation, the human serotonin 5-HT2B receptor expression plasmid-diluted liquid and Lipofectamine (registered mark) 2000-diluted liquid were mixed at an equal volume and incubated at room temperature to form a complex. The complex was dispensed at 50 μL/well on the cells prepared above. The cells were incubated in 5% CO2 incubator at 37° C. for 2 days. After incubation, the cells were used as human serotonin 5-HT2B receptor forced expression cells for measurement of intracellular calcium concentration.
The stimulating activities of human serotonin 5-HT2B receptor was determined by measuring of intracellular calcium concentration. The 30 mM dimethyl sulfoxide (DMSO) solution contained test compounds or serotonin hydrochloride (Sigma) as positive control, was diluted with assay buffer ((HBSS), 20 mM HEPES, 1.3 mM calcium chloride, 0.5 mM magnesium chloride and 0.4 mM magnesium sulfate were contained, pH7.4) to appropriate concentration.
The forced expression cells were washed with assay buffer, and 100 μL/well of fluorescent calcium indicator (Fluo-4 NW Calcium Assay Kit) was added and incubated in 5% CO2 incubator at 37° C. After incubation, 50 μL/well of each test compound was added, and the concentration of intracellular calcium was measured as fluorescent signal with FlexStation (registered mark) II (Molecular Devices). The data was analyzed by nonlinear regression and sigmoidal dose-response curve fitting using GraphPad PRISM 4.0, and values of EC50 (concentration of the compound producing half the maximal effect of the compound) were calculated. The data was presented as mean value (n=2).
Background: Calcium assays in cells follow changes in intracellular calcium, usually with a dye or a luminescent sensor.

Assay [3] has as its system unilateral 6-hydroxydopamine-lesioned hemi-Parkisonian rats. The experiment in a line: Contralateral rotational behavior in unilateral 6-hydroxydopamine-lesioned hemi-parkinsonian rats. It counts as in vivo, rat. Particulars: orally 10 mg/kg, mean value; for Total number of rotations: contralateral rotations up to 24 hours after administration; for Duration: measured up to 24 hours after administration, duration of rotational response. The method, then: 6-OHDA was dissolved at 2 mg/mL in a physiolosical saline solution containing 0.2% L-ascorbic acid. Desipramine was dissolved at 10 mg/mL in a physiolosical saline solution in a hot-water bath. Apomorphine was dissolved at 0.1 mg/mL in a physiolosical saline solution. Ropinirole was dissolved in distilled water. Test compounds were dissolved in a solution containing 2% DMA, 100 or 200 mol % hydrochloric acid, and 98% of a 0.5% methyl cellulose solution. […] (Eur J Pharmacol, 2000, vol. 408, P. 249-255) with a minor modification. Male Sprague-Dawley rats (6-weeks-old, Charles River Laboratories Japan Inc.) were anaesthetized with intraperitoneal somnopentyl (45 mg/kg) injection and placed in a stereotaxic frame (Narishige). In order to prevent 6-OHDA-induced damage of noradrenergic neurons, desipramine (25 mg/kg) was intraperitoneally injected 30 minutes before the 6-OHDA injection. After the bregma identification via a middle calvarial incision, the skull was drilled using a dental drill at the site of 6-OHDA injection. The lesion was made by injecting 6-OHDA (8 μg in 4 μL at a speed of 1 μL/minute) unilaterally into the left medial forebrain bundle by using a injection cannula (30 gauge needle) connected to a microsyringe (Hamilton) (the lesion coordinates; A/P −2.5 mm, L/M −1.8 mm, and V/D −8.0 mm, from the bregma point and surface of the skull). The cannula was carefully removed from the animal after keeping placed on the lesion site for 5 minutes. The skull was filled its hole with dental cement, disinfected, and the scalp incision was surgically sutured. Animals recovered from anesthesia were housed as usual until the day of the experiment. Three weeks after the lesion, rats were tested on the basis of their contralateral rotational behavior (single rotation was defined as a 360° turn) in response to 0.1 mg/kg apomorphine given subcutaneously. For behavioral observation, rats were placed in plastic cylinders of a diameter of 30 cm, and its contralateral rotational behaviors were videotaped and quantified by rat-rotation auto counting system R-RACS (Kissei Wellcom). On the experimental day, animals were fasted overnight, and test compounds were orally administrated at doses of 10 mg/kg. The drug potency was measured until up to 24 hours after administration as the number of contralateral rotation. […] Total number of rotations and the duration of the response in experimental period were presented as mean value. As comparative example, ropinirole as non-ergot dopamine D2 receptor agonist, was examined in a similar fashion.

T1 sequence (P14416 whole entry): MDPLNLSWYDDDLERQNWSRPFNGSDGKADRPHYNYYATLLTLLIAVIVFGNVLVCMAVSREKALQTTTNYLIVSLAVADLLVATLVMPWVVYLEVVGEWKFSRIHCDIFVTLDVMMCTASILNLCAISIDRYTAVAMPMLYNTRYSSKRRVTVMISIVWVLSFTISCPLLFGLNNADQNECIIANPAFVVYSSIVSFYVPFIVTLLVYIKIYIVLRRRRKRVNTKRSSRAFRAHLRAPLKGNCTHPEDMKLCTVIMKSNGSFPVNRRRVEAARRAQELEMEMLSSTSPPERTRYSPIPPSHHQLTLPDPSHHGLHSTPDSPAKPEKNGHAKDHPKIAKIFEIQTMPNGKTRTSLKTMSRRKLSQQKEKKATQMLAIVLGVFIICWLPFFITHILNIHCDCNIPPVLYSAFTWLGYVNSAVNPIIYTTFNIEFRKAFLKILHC

Take `CCCN1C[C@@H](NC(=O)N(CC)CCN(C)C)C[C@@H]2Cc3nc(N)ncc3C[C@H]21` [Compound 1-1, 3-[(5aR,8S,9aR)-2-Amino-6-propyl-5,5a,6,7,8,9,9a,10-octahydropyrido[2,3-g]quinazolin-8-yl]-1-[2-(dimethylamino)ethyl]-1-ethylurea]: the figures for the EC50 in assay [1] and in assay [2] were 64 nM and > 10 µM, respectively. Further, in assay [3], the “Total number of rotations” value is listed as 5038.5. The same molecule returned a Duration in assay [3] of 541.3 minuets.
Taken in the same sequence, the figures for `CCCN(CCN(C)C)C(=O)N[C@H]1C[C@@H]2Cc3nc(N)ncc3C[C@H]2N(CCC)C1` [Compound 1-2, 3-[(5aR,8S,9aR)-2-amino-6-propyl-5,5a,6,7,8,9,9a,10-octahydropyrido[2,3-g]quinazolin-8-yl]-1-[2-(dimethylamino)ethyl]-1-propylurea] were 252 nM, > 10 µM, 2580.0 and 307.5 minuets.
Taken in the same sequence, the figures for `CCCN1C[C@@H](NC(=O)N(C)CCN(CC)CC)C[C@@H]2Cc3nc(N)ncc3C[C@H]21` [Compound 1-4, 3-[(5aR,8S,9aR)-2-amino-6-propyl-5,5a,6,7,8,9,9a,10-octahydropyrido[2,3-g]quinazolin-8-yl]-1-[2-(diethylamino)ethyl]-1-methylurea] were 111 nM, > 10 µM, 3975.0 and 538.8 minuets.

The EC50 is the midpoint of the concentration-response curve.
